Measured values published in article doi:10.1101/2025.10.12.681846v1 (bioRxiv, 2025).
pKd: −log10 of the molar value. Read-outs that look alike come from different tables or passages of the source.

How the values were obtained:
[1] = molecular target: mouse IgG1-Fc (Mus musculus, UniProt P01868); assay: SPR binding to mouse IgG1-Fc; conditions: for pKd: read-out: KD for IgG1-Fc, SPR, 25 °C, DPBS pH 7.4
[2] = tested on: STZ-induced type 1 diabetic mice; assay: Long-term therapy as weekly formulation in diabetic mice; format: in vivo, C57BL/6 mice; conditions: for BG drop in the first few hours after injection: n = 5

Chain of mouse IgG1-Fc (P01868 98-324 limits assumed): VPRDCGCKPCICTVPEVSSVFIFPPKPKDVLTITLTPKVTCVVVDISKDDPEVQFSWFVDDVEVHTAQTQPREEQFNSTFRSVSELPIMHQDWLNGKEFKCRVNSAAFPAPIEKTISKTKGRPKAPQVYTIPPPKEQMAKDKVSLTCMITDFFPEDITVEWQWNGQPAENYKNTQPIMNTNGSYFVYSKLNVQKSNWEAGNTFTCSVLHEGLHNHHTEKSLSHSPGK

With “insulin-129: recombinant human insulin with 4-carboxy-3-fluorophenylboronic acid (FPBA) covalently conjugated at A1 and B29 sites” the “increase in KD for IgG1-Fc” value ([1]; glucose from 5 to 20 mM) was 5.0 fold, the pKd ([1]; 5 mM glucose) was 6.86 and the pKd ([1]; 10 mM glucose) was 6.56. The pKd ([1]; 20 mM glucose) was 6.16, the pKd ([1]; absence of glucose) was 7.37 and the “normoglycaemia maintained by each injection” value ([2]; 10 mg/kg then three weekly 4.8 mg/kg s.c.) was “one week”. For the same substance, the “time remaining effective before BG returned to original level” value ([2]; after the fourth injection) was “more than 800 hours”, the “BG drop in the first few hours after injection” value (shortened to “BG drop in the first few hours”) ([2]; first injection (10 mg/kg s.c.)) was 89.6 ± 13.1 mg/dL and the “BG drop in the first few hours” value ([2]; fourth weekly injection (4.8 mg/kg s.c.)) was 78.8 ± 8.8 mg/dL. The “stabilised BG” value ([2]; one day after the fourth injection) was “approximately 150 mg/dL”, the “BG drop in the first few hours” value ([2]; second weekly injection (4.8 mg/kg s.c.)) was 79.6 ± 12.4 mg/dL and the “BG drop in the first few hours” value ([2]; third weekly injection (4.8 mg/kg s.c.)) was 77.8 ± 5.4 mg/dL.
